# ChEMBL document CHEMBL1201862, “PubChem BioAssay data set” (2004)
# Active and inactive are the calls of the source.
# Columns and labels:
# [1] = test system: BJ; assay: cytotoxicity toward BJ-TERT fibroblasts, dose response, cell-based, RAS-independent, luminescence (AID 1933); format: functional; conditions: Homo sapiens
# [2] = Luminescence-based dose response cell-based high throughput screening assay for cytotoxic compounds using the IEC-6 intestinal epithelial cell line. [Related pubchem assays: 1858 (Summary AID.), 1825 (Counterscreen.), 1907 (Confirmation screen.)]; format: functional
# [3] = cells; format: functional, cell-based
# [4] = cytotoxicity toward DRD oncogenic fibroblasts, dose response, cell-based, non-viral oncogenic, luminescence (AID 1934); format: functional; conditions: Homo sapiens
# [5] = test system: Jurkat; assay: SAR Analysis of small molecule inhibitors of T-cell specific antigen receptor-induced NF-kB activation in a Jurkat cell line using a luminescence assay - Set 2. [Related pubchem assays (depositor defined):AID435003, AID435012, AID465]; format: functional, cell-based; conditions: Homo sapiens
# [6] = test system: HEK293; assay: SAR Analysis of small molecule inhibitors of T-cell specific antigen receptor-induced NF-kB activation in a HEK-293T cell line using a luminescence assay - Set 2. [Related pubchem assays (depositor defined):AID435003, AID435012, AID489026]; format: functional, cell-based; conditions: Homo sapiens
# [7] = Shn3 3'UTR reporter inhibitors, dose response, cell-based, Clone20 osteoblasts, firefly luciferase, cherry-picked (AID 624132); format: functional;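 also: firefly luciferase luminescence from reporter carrying the Shn3 3'UTR in osteoblasts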
# [8] = control 3'UTR Renilla luciferase suppression, dose response, counter-screen for Shn3 inhibitor project, cell-based, Clone20-Shn3RL, cherry-picked (AID 624133); format: functional
# [9] = biological target: T1, Sentrin-specific protease 7 (Homo sapiens, UniProt Q9BQF6); format: functional;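 also: Luminescence-based dose-response confirmation of ultra-high-throughput screening hits, measuring inhibition of SENP7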
# T1 sequence (Q9BQF6 whole entry): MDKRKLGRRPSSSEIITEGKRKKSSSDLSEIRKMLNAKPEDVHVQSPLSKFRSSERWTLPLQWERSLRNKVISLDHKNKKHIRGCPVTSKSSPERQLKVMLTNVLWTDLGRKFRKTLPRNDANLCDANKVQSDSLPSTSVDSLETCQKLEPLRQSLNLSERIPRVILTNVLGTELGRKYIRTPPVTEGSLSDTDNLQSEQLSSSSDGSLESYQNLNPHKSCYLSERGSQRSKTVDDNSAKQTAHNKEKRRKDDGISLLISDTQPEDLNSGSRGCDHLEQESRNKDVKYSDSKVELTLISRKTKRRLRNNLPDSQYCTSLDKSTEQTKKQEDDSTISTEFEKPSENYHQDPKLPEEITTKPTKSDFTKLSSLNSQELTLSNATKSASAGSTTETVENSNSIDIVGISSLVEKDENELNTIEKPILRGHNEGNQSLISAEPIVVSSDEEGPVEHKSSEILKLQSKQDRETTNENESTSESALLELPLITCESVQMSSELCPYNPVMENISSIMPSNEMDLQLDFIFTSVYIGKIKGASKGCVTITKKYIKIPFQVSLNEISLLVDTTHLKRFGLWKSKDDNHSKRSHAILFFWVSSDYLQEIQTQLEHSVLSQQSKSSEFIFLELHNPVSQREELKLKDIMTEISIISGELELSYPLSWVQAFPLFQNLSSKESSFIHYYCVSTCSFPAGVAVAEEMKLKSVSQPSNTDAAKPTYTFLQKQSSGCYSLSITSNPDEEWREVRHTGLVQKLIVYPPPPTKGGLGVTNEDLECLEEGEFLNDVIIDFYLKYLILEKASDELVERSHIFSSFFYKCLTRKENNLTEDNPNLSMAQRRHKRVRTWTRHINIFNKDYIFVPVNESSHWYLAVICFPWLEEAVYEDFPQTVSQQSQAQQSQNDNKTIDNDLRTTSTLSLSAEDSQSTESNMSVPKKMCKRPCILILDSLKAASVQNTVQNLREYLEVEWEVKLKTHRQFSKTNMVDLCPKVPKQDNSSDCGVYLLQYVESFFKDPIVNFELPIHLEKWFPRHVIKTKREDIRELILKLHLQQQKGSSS
# [10] = biological target: T2, Histone-lysine N-methyltransferase NSD2 (Homo sapiens, UniProt O96028); format: biochemical
# T2 sequence (O96028 whole entry): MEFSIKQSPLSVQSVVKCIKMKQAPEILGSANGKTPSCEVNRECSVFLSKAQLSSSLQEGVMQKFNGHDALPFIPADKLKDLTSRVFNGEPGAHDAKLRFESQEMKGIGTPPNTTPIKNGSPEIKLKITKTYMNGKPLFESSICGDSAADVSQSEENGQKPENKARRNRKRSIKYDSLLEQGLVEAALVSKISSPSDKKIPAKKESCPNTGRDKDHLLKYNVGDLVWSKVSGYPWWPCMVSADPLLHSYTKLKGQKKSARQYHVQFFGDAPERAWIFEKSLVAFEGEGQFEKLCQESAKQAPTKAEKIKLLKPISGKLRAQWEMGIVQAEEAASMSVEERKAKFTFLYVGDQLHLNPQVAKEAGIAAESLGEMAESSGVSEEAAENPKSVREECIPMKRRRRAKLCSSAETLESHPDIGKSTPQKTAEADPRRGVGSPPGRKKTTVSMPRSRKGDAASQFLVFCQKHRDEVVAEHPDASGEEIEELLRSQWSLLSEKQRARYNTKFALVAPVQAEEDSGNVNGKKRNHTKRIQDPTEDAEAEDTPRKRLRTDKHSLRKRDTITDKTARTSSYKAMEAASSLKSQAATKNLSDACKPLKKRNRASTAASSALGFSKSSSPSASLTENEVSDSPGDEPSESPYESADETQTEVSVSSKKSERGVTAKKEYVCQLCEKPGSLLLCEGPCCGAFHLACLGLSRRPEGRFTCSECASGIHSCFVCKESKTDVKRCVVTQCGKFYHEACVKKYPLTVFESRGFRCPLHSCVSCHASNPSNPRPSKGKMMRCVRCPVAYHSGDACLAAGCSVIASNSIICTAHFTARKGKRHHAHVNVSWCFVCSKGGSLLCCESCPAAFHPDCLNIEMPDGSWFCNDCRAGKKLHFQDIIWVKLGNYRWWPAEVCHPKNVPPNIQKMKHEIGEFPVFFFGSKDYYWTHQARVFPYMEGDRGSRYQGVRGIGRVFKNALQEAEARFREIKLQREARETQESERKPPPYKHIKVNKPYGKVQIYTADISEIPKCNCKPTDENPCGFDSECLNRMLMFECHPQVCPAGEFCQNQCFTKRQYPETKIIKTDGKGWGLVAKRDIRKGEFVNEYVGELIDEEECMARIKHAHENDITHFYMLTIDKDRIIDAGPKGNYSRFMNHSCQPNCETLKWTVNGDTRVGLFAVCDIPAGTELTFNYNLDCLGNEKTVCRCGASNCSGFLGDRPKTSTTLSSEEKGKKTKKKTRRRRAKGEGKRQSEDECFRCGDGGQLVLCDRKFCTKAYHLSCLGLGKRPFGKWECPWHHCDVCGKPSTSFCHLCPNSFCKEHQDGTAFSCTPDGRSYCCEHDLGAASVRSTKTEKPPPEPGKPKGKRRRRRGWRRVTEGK
# [11] = biological target: Caspase-7 (Homo sapiens, UniProt P55210); assay: human caspase-7 inhibitors, dose response, selectivity assay for caspase-6 inhibitor project, biochemical, DEVD-R110 fluorescence, cherry-pick (AID 743295)
# Chain of Caspase-7 (P55210 24-198 limits assumed): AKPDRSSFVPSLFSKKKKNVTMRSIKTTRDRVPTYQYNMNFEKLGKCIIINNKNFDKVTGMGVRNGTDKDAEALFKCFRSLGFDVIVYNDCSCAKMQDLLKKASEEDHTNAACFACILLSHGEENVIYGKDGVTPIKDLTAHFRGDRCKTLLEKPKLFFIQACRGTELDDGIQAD
# Chain of Caspase-7 (P55210 207-303 limits assumed): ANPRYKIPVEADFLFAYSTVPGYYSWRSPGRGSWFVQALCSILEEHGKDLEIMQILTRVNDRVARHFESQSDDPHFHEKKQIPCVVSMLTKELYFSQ
IC50 [9],AC50 [10],AC50 [11],Structure (SMILES),EC50 [1],IC50 [2],EC50 [3],EC50 [4],IC50 [5],IC50 [6],AC50 [7],AC50 [8]
–,–,–,CCCCC(=O)NC(c1ccc(N(C)C)cc1)c1ccc2cccnc2c1O (stereo unspecified),1050 nM (active),1720 nM (active),> 350000 nM (not active),2510 nM (active),1700 nM (active),2230 nM (active),980 nM (active),> 70000 nM (inactive)
8730 nM (active),8270 nM (active),20600 nM (active),CN(CC(=O)Nc1ccccc1Cl)C(=O)COC(=O)c1ccc([N+](=O)[O-])s1,–,–,–,–,–,–,–,–
